The record followed here is article PMC9371267 (PLoS Biology, 2022).

Common to all, as to assay type: cell-based
Experiment [1] deals with T1, human GALR2 WT (Homo sapiens, UniProt O43603).
T1 construct: expressed in transfected cells; host or cells: HEK293A
T1 sequence (O43603 1-387): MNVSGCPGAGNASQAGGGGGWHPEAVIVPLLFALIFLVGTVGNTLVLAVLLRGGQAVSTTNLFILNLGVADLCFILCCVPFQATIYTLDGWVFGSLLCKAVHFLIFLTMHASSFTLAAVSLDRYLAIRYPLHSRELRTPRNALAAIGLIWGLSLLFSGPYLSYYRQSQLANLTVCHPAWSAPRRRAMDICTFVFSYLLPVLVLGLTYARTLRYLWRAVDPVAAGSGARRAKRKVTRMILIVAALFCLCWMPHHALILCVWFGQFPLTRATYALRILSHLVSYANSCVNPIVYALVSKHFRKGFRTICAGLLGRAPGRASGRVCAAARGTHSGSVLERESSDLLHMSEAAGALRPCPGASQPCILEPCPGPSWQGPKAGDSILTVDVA
The experiment is described as follows: NanoBiT-based Gq activation assay (Gq-PLCβ association), WT GALR2. Conditions: HEK293-A, HEK293A, normalized to WT (1:1), mean ± SEM, n = 3. Here is the method:
(§1) After an incubation for 1 day, the transfected cells were harvested, pelleted with centrifugation, and suspended in 2 mL of Hank’s balanced saline solution containing 0.01% bovine serum albumin (BSA fatty acid–free grade, SERVA) and 5 mM HEPES (pH 7.4) (assay buffer). The cell suspension was dispensed in a white 96-well plate at a volume of 80 μl per well and mixed with 20 μl of 50 μM coelenterazine (custom-synthesized by Amadis Chemical) diluted in the assay buffer. After 2-h incubation at room temperature, the plate was measured for baseline luminescence (SpectraMax L, Molecular Devices). […] Kinetics data points from 5 min to 10 min were averaged and normalized to the initial count and used as a G-protein activation index. The G-protein activation signals were fitted to a 4-parameter sigmoidal concentration-response curve (GraphPad Prism8), and pEC50 values (negative logarithmic values of EC50 values) and Span values (“Top”–“Bottom”) were obtained. For individual experiments, we calculated Emax by normalizing Span to the WT GALR2 and ΔpEC50 by subtracting pEC50 of the WT GALR2 performed in parallel. We also calculated Emax/EC50 of GALR2 mutants relative to that of GALR2 WT, a dimensionless parameter known as relative intrinsic activity (RAi) and used its log-transformed value (Log RAi) to denote receptor activity.

The target of experiment [2] is T2, GALR2 V174^ECL2A mutant (Homo sapiens, UniProt O43603, V174A).
T2 construct: expressed in transfected cells; host or cells: HEK293A
T2 sequence (O43603 1-387 V174A): T1 sequence (O43603 1-387) with V174A
The experiment is described as follows: NanoBiT-based Gq activation assay, V174^ECL2A. As to conditions: HEK293-A; HEK293A; expression ~WT (1:5); normalized to WT (1:1); mean ± SEM, n = 3; ns p > 0.05 vs expression-matched WT. Here is the method:
as §1

Experiment [3] has as its target T3, GALR2 H176^ECL2A mutant (Homo sapiens, UniProt O43603, H176A).
T3 construct: expressed in transfected cells; host or cells: HEK293A
T3 sequence (O43603 1-387 H176A): T1 sequence (O43603 1-387) with H176A
Briefly: NanoBiT-based Gq activation assay, H176^ECL2A. Conditions: HEK293-A; HEK293A; expression ~WT (1:1); normalized to WT (1:1); mean ± SEM, n = 3; ns p > 0.05 vs expression-matched WT. How it is done:
as §1

The target of experiment [4] is T4, GALR2 L266^ECL3A mutant (Homo sapiens, UniProt O43603, L266A).
T4 construct: expressed in transfected cells; host or cells: HEK293A
T4 sequence (O43603 1-387 L266A): T1 sequence (O43603 1-387) with L266A
Briefly: NanoBiT-based Gq activation assay, L266^ECL3A. As to conditions: HEK293-A; HEK293A; expression ~WT (1:1); normalized to WT (1:1); mean ± SEM, n = 3; ns p > 0.05 vs expression-matched WT. How it is done: as §1

Experiment [5] concerns the target T5, GALR2 R274^7.35×34A mutant (Homo sapiens, UniProt O43603, R274A).
T5 construct: expressed in transfected cells; host or cells: HEK293A
T5 sequence (O43603 1-387 R274A): T1 sequence (O43603 1-387) with R274A
Briefly: NanoBiT-based Gq activation assay, R274^7.35×34A. Conditions: HEK293-A. How it is done: as §1

Broadly, the Emax is the size of the effect at its maximum, as opposed to the concentration needed.

SMILES strings stand for the structures. Where a chain is given by its changes, count along the chain named.

On to `CC(C)C[C@H](NC(=O)CNC(=O)[C@H](CC(N)=O)NC(=O)[C@H](CCCCN)NC(=O)[C@H](CC(=O)O)NC(=O)[C@H](CO)NC(=O)[C@H](Cc1ccccc1)NC(=O)[C@H](CO)NC(=O)[C@H](CCCNC(=N)N)NC(=O)[C@H](Cc1c[nH]cn1)NC(=O)[C@H](CC(N)=O)NC(=O)CNC(=O)[C@@H](NC(=O)[C@H](C)NC(=O)[C@H](Cc1c[nH]cn1)NC(=O)[C@@H]1CCCN1C(=O)CNC(=O)[C@H](CC(C)C)NC(=O)[C@H](CC(C)C)NC(=O)[C@H](Cc1ccc(O)cc1)NC(=O)CNC(=O)[C@H](C)NC(=O)[C@H](CO)NC(=O)[C@H](CC(N)=O)NC(=O)[C@H](CC(C)C)NC(=O)[C@@H](NC(=O)[C@H](Cc1c[nH]c2ccccc12)NC(=O)CN)[C@@H](C)O)C(C)C)C(=O)N[C@H](C(=O)N[C@@H](CO)C(=O)O)[C@@H](C)O` [galanin], for which the Emax in experiment [1] (WT (1:5) plasmid) stood at 70.1 ± 8.7%; in experiment [1] (WT (1:10) plasmid), 48.3 ± 4.7%; in experiment [1] (WT (1:25) plasmid), 27.4 ± 5.1%; in experiment [2], 72.8 ± 11.3%; in experiment [3], 116 ± 3.4%; in experiment [4], 90.9 ± 10.5%. This compound also yielded an Emax in experiment [5] of 74.7 ± 5.9%.
